pKi: −log10 of the molar value.
Each compound was assayed against T1, human opioid receptor-like receptor (ORL-1) (Homo sapiens, UniProt P41146) (assay: Nociceptin affinity at the ORL1 receptor ([35S]GTPgS binding, membranes from recombinant HEK-293 cells)). Settings: ORL-1 membranes from recombinant HEK-293 cells; GraphPad PRISM curve fitting; read-out: Nociceptin Affinity calc Ki.
T1 construct: host or cells: HEK-293
Method: Nociceptin affinity at the ORL1 receptor for preferred compounds was obtained using the following assay:
Membranes from recombinant HEK-293 cells expressing the human opioid receptor-like receptor (ORL-1) (Receptor Biology) were prepared by lysing cells in ice-cold hypotonic buffer (2.5 mM MgCl2, 50 mM HEPES, pH 7.4) (10 ml/10 cm dish) followed by homogenization with a tissue grinder/teflon pestle. Membranes were collected by centrifugation at 30,000× g for 15 min at 4° C. and pellets resuspended in hypotonic buffer to a final concentration of 1-3 mg/ml. Protein concentrations were determined using the BioRad protein assay reagent with bovine serum albumen as standard. Aliquots of the ORL-1 receptor membranes were stored at −80° C.
Functional SGTPgS binding assays were conducted as follows. ORL-1 membrane solution was prepared by sequentially adding final concentrations of 0.066 mg/ml ORL-1 membrane protein, […], […] and 0.20 nM [^35S]GTPgS to binding buffer (100 mM NaCl, 10 mM MgCl2, 20 mM HEPES, pH 7.4) on ice. The prepared membrane solution ([…]) was transferred to 96-shallow well polypropylene plates containing […] of 20× concentrated stock solutions of agonist prepared in DMSO. Plates were incubated for 30 min at room temperature with shaking. Reactions were terminated by rapid filtration onto 96-well Unifilter GF/B filter plates (Packard) using a 96-well tissue harvester (Brandel) and followed by three filtration washes with […] ice-cold binding buffer (10 mM NaH2PO4, 10 mM Na2HPO4, pH 7.4). Filter plates were subsequently dried at 50° C. for 2-3 hours. […] scintillation cocktail (BetaScint; Wallac) was added and plates were counted in a Packard Top-Count for 1 min/well.
Data was analyzed using the curve fitting functions in GraphPad PRISMÔ, v.

T1 sequence (P41146 whole entry): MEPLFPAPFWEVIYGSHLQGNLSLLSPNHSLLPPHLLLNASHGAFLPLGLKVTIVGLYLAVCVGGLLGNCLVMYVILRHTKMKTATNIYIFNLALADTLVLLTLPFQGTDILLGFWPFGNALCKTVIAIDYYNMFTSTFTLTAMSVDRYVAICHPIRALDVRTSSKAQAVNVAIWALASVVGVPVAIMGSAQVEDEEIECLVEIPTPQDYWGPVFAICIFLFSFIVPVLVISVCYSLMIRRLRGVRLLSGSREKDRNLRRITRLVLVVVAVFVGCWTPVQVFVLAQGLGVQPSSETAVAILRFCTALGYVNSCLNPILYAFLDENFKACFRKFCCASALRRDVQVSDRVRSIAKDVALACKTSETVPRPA

With c1ccc2c(c1)CC(N1CCC3(CCc4ccccc43)CC1)C2 [1-(1,3-dihydroinden-2-yl)-spiro[piperidine-4,1′-indane]] as the compound, how does the pKi read?
Its pKi is under 5.00.

How did the pKi turn out when C1=CC2(CCN(C3Cc4ccccc4C3)CC2)c2ccccc21 [1-(1,3-dihydroinden-2-yl)-spiro[piperidine-4,1′-indene]] was run?
The pKi was 5.07.

C1=CC2(CCN(C3CCc4ccccc4C3)CC2)c2ccccc21 (stereo not shown) [1-(2-[1,2,3,4-tetrahydronaphthyl])-spiro[piperidine-4,1′-indene]] was tested. Which pKi did it give?
Its pKi is 5.92.

How did the pKi turn out when c1ccc(CCN2CCC3(CCc4ccccc43)CC2)cc1 [1-(2-phenyl-ethyl)-spiro[piperidine-4,1′-indane]] was run?
The pKi was 6.04.

How did the pKi turn out when C1=CC2(CCN(CCC(c3ccccc3)c3ccccc3)CC2)c2ccccc21 [1-(3,3-Bis(phenyl)propyl)-spiro[piperidine-4,1′-indene]] was run?
Its pKi is 7.38.

With CC1(C)COC2(CCC(N3CCC4(CCc5ccccc54)CC3)CC2)OC1 [1-(3,3-dimethyl-1,5-dioxaspiro[5.5]undeca-9-yl)-spiro[piperidine-4,1′-indane]] as the compound, how does the pKi read?
The pKi was under 5.00.

How did the pKi turn out when CC1(C)COC2(CCC(N3CCC4(C=Cc5ccccc54)CC3)CC2)OC1 [1-(3,3-dimethyl-1,5-dioxaspiro[5.5]undeca-9-yl)-spiro[piperidine-4,1′-indene]] was run?
Its pKi is under 5.00.

With Fc1ccc(C(CCCN2CCC3(CCc4ccccc43)CC2)c2ccc(F)cc2)cc1 [1-(4,4-Bis(p-fluorophenyl)butyl)-spiro[piperidine-4,1′-indane]] as the compound, how does the pKi read?
The pKi was under 5.00.

CC(C)C1CCC(N2CCC3(CCc4ccccc43)CC2)CC1 (stereo not shown) [1-(4-(1-methylethyl)-cyclohexyl)-spiro[piperidine-4,1′-indane]] was tested. Which pKi did it give?
Its pKi is 6.30.

How did the pKi turn out when CCCC1CCC(N2CCC3(CCc4ccccc43)CC2)CC1 (stereo not shown) [1-(4-propyl-cyclohexyl)-spiro[piperidine-4,1′-indane]] was run?
The pKi was 5.65.

How did the pKi turn out when CC(C)CCC(C)N1CCC2(CCc3ccccc32)CC1 (stereo not shown) [1-(5-methylhex-2-yl)-spiro[piperidine-4,1′-indane]] was run?
The pKi was 6.17.

With CC(C)CCC(C)N1CCC2(C=Cc3ccccc32)CC1 (stereo not shown) [1-(5-methylhex-2-yl)-spiro[piperidine-4,1′-indene]] as the compound, how does the pKi read?
The pKi was 6.45.

c1ccc2c(c1)CCc1ccccc1C2N1CCC2(CCc3ccccc32)CC1 [1-(10,11-Dihydro-5H-dibenzo[a,d]-cyclohepten-5-yl)-spiro[piperidine-4,1′-indane]] was tested. Which pKi did it give?
The pKi was under 5.00.

How did the pKi turn out when C1=CC2(CCN(C3c4ccccc4CCc4ccccc43)CC2)c2ccccc21 [1-(10,11-Dihydro-5H-dibenzo[a,d]-cyclohepten-5-yl)-spiro[piperidine-4,1′-indene]] was run?
The pKi was under 5.00.

With c1ccc(CN2CCC3(CCc4ccccc43)CC2)cc1 [1-(benzyl)-spiro[piperidine-4,1′-indane]] as the compound, how does the pKi read?
The pKi was 6.06.

With c1ccc2c(c1)CCC21CCN(C2CCCCCCC2)CC1 [1-(cyclooctyl)-spiro[piperidine-4,1′-indane]] as the compound, how does the pKi read?
The pKi was 6.29.

How did the pKi turn out when C1=CC2(CCN(C3CCCCCCC3)CC2)c2ccccc21 [1-(cyclooctyl)-spiro[piperidine-4,1′-indene]] was run?
Its pKi is 6.30.

With c1ccc2c(c1)CCC21CCN(CC2CCCCCCC2)CC1 [1-(cyclooctylmethyl)-spiro[piperidine-4,1′-indane]] as the compound, how does the pKi read?
Its pKi is 6.81.

How did the pKi turn out when C1=CC2(CCN(CC3CCCCCCC3)CC2)c2ccccc21 [1-(cyclooctylmethyl)-spiro[piperidine-4,1′-indene]] was run?
The pKi was 6.51.

How did the pKi turn out when c1ccc2c(c1)CCC21CCN(C2CCC3CCCCC3C2)CC1 (stereo not shown) [1-(decahydro-2-naphthyl)-spiro[piperidine-4,1′-indane]] was run?
Its pKi is 5.50.

C1=CC2(CCN(C3CCC4CCCCC4C3)CC2)c2ccccc21 (stereo not shown) [1-(decahydro-2-naphthyl)-spiro[piperidine-4,1′-indene]] was tested. Which pKi did it give?
Its pKi is 5.89.

c1ccc2c(c1)CCC21CCN(Cc2cccc3ccccc23)CC1 [1-(naphth-1-yl-methyl)-spiro[piperidine-4,1′-indane]] was tested. Which pKi did it give?
Its pKi is 6.84.

O=C1Cc2ccccc2C12CCN(Cc1ccc3ccccc3c1)CC2 [1-(naphth-2-yl-methyl)-spiro[piperidine-4,1′-(2-oxo)-indane]] was tested. Which pKi did it give?
Its pKi is 7.08.

With O=C1CC2(CCN(Cc3ccc4ccccc4c3)CC2)c2ccccc21 [1-(naphth-2-yl-methyl)-spiro[piperidine-4,1′-(3-oxo)-indane]] as the compound, how does the pKi read?
The pKi was 6.38.

c1ccc2cc(CN3CCC4(CCC5CCCCC54)CC3)ccc2c1 (stereo not drawn) [1-(naphth-2-yl-methyl)-spiro[piperidine-4,1′-cis-3a, 4,5,6,7,7a-hexahydroindane]] was tested. Which pKi did it give?
The pKi was 6.51.

With c1ccc2c(c1)CCC21CCN(Cc2ccc3ccccc3c2)CC1 [1-(naphth-2-yl-methyl)-spiro[piperidine-4,1′-indane]] as the compound, how does the pKi read?
The pKi was 7.46.

With C1=CC2(CCN(Cc3ccc4ccccc4c3)CC2)c2ccccc21 [1-(naphth-2-yl-methyl)-spiro[piperidine-4,1′-indene]] as the compound, how does the pKi read?
Its pKi is 7.44.

With C1=CC2(CCN(C3CC4CCC3C4)CC2)c2ccccc21 (stereo not shown) [1-(norbornan-2-yl)-spiro[piperidine-4,1′-indene]] as the compound, how does the pKi read?
Its pKi is 5.19.

With c1ccc2c(c1)CCC21CCN(C2C3CCC2CC3)CC1 (stereo not shown) [1-(norbornan-7-yl)-spiro[piperidine-4,1′-indane]] as the compound, how does the pKi read?
Its pKi is 6.04.

c1ccc(COc2ccc(CN3CCC4(CCc5ccccc54)CC3)cc2)cc1 [1-(p-benzyloxybenzyl)-spiro[piperidine-4,1′-indane]] was tested. Which pKi did it give?
Its pKi is 6.06.

With C1=CC2(CCN(Cc3ccc(OCc4ccccc4)cc3)CC2)c2ccccc21 [1-(p-benzyloxybenzyl)-spiro[piperidine-4,1′-indene]] as the compound, how does the pKi read?
The pKi was 5.81.

How did the pKi turn out when N#Cc1ccc(CN2CCC3(CCc4ccccc43)CC2)cc1 [1-(p-cyano-benzyl)-spiro[piperidine-4,1′-indane]] was run?
Its pKi is 5.82.

c1ccc(-c2ccc(CN3CCC4(CCc5ccccc54)CC3)cc2)cc1 [1-(p-phenylbenzyl)-spiro[piperidine-4,1′-indane]] was tested. Which pKi did it give?
The pKi was 5.92.

How did the pKi turn out when CC(C)C1CCC(N2CCC3(C=Cc4ccccc43)CC2)CC1 (stereo not shown) [1-[4-(2-propyl)-cyclohexyl]-spiro[piperidine-4,1′-indene]] was run?
Its pKi is 6.53.

c1ccc2c(c1)CCC21CCN(C2CC3CCC2C3)CC1 (stereo not shown) [1-[norbornan-2-yl]-spiro[piperidine-4,1′-indane]] was tested. Which pKi did it give?
The pKi was 5.14.

C1=CC2(CCN(C3CCCCCCCCC3)CC2)c2ccccc21 [1-cyclodecyl-spiro[piperidine-4,1′-indene]] was tested. Which pKi did it give?
Its pKi is 6.37.

What follows are compounds tested against Mu opioid receptor (Homo sapiens, UniProt P35372) (assay: Affinity at the μ receptor ([35S]GTPγS binding, membranes)). Settings: GraphPad PRISM curve fitting, read-out: Mu Receptor Affinity calc Ki.
Method: Affinity at the μ receptor for compounds was obtained according to the following assay:
Mu opioid receptor membrane solution was prepared by sequentially adding final concentrations of […] of the desired membrane protein, 10 μg/ml saponin, 3 μM GDP and 0.20 nM [^35S]GTPγS to binding buffer (100 mM NaCl, 10 mM MgCl2, 20 mM HEPES, pH 7.4) on ice. The prepared membrane solution (190 μl/well) was transferred to 96-shallow well polypropylene plates containing 10 μl of 20× concentrated stock solutions of agonist prepared in DMSO. Plates were incubated for 30 min at room temperature with shaking. Reactions were terminated by rapid filtration onto 96-well Unifilter GF/B filter plates (Packard) using a 96-well tissue harvester (Brandel) and followed by three filtration washes with 200 μl ice-cold binding buffer (10 mM NaH2PO4, 10 mM Na2HPO4, pH 7.4). Filter plates were subsequently dried at 50° C. for 2-3 hours. Fifty μl/well scintillation cocktail (MicroScint20, Packard) was added and plates were counted in a Packard Top-Count for 1 min/well.
Data were analyzed using the curve fitting functions in GraphPad PRISM™, v.3.0 and the results for several compounds are set forth in table 2 below: […]

Mu opioid receptor, sequence (P35372 whole entry, species assumed): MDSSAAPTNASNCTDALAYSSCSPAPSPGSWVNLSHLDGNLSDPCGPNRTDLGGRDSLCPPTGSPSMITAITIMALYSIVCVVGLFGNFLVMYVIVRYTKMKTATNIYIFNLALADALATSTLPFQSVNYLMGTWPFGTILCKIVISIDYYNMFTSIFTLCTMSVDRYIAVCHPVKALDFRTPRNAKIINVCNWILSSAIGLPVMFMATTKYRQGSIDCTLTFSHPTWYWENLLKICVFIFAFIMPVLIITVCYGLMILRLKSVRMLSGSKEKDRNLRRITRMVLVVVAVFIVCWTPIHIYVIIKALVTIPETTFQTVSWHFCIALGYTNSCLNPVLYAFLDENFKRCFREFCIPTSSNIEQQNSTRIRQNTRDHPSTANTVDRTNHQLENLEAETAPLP

How did the pKi turn out when CC(C)C1CCC(N2CCC3(CCc4ccccc43)CC2)CC1 (stereo not shown) [1-(4-(1-methylethyl)-cyclohexyl)-spiro[piperidine-4,1′-indane]] was run?
The pKi was 6.03.

How did the pKi turn out when C1=CC2(CCN(C3CCCCCCC3)CC2)c2ccccc21 [1-(cyclooctyl)-spiro[piperidine-4,1′-indene]] was run?
The pKi was 5.69.

How did the pKi turn out when c1ccc2c(c1)CCC21CCN(Cc2cccc3ccccc23)CC1 [1-(naphth-1-yl-methyl)-spiro[piperidine-4,1′-indane]] was run?
Its pKi is 5.95.

With c1ccc2c(c1)CCC21CCN(Cc2ccc3ccccc3c2)CC1 [1-(naphth-2-yl-methyl)-spiro[piperidine-4,1′-indane]] as the compound, how does the pKi read?
The pKi was 6.23.
